Among the data in a melting point compilation (Tetko et al.; mined from patent text by program, amines drawn as free bases though some values may be those of a salt) are melting point values, retold here.

What is called melting point is the temperature of the solid-liquid transition.

Take `COc1cc(C)nc(N(C)C(=O)NS(=O)(=O)c2c(Cl)cccc2Cl)n1`: the melting point lay in the range of 170 to 171 °C.

The molecule `CC(C)(C)Cn1cc(-c2ccc(Oc3ccccc3)cc2)c2c(N)ncnc21` gave a melting point of 158 °C.

Regarding `COCc1cc2c(C(=O)Nc3ccnn3C)ccc(OC)c2o1`, the melting point is 148 to 150 °C. On to `CN(C)C(=O)C(C)(C)c1cn2nc(Cl)ccc2n1`, for which the melting point fell in the range of 149 to 151 °C.

In turn, `COc1c(C)oc2c(-n3c(=O)cc(C(F)(F)F)n(C)c3=O)c(F)cc(Cl)c12` displayed a melting point of 57 to 60 °C. For `N#Cc1c(C(F)(F)F)nn(-c2c(Cl)cc(C(F)(F)F)cc2Cl)c1N` the value was 196 to 200 °C; for `COc1cc(C(=O)c2csc(Nc3ccc(Cl)cc3)n2)cc(OC)c1OC`, 165 to 166 °C. As for `O=C(NCCSCc1cccc(Cl)c1)c1ccccc1`, the melting point lay in the range of 75 to 76 °C.

`CCCCCCCc1nc(-c2ccccc2)c(-c2ccccc2)n1CCCCCCCC(=O)O` yielded a melting point of 75 to 76 °C. Take `CCN(CC)C(=S)SCCNC(=O)CCNC(=O)OCc1ccccc1`: the melting point is 90 to 93 °C. For `CCc1ccc(C(=O)c2cccc(F)c2)c(O)c1` the value was 0 to 20 °C; for `CCOc1ccc(-c2ccc3c(c2)C=C(C(=O)OC)CCN3C=O)cc1`, 133 to 135 °C. Next, `CCCCCCCCCCCCCCCCCCNC(=O)OCC(CNS(=O)(=O)CCCCl)NC(=O)NC` (stereo not given): 87 to 90 °C; `CCCOc1ccccc1-c1ncc(C(=O)N(C)C)c(=O)[nH]1`: 104 to 105 °C.

The molecule `C[C@@H](O)[C@H]1CC[C@H]2[C@@H]3C=CC4=CC(=O)C=C[C@]4(C)[C@H]3CC[C@]12C` yielded a melting point of 162 to 164 °C. For `CCNC(=S)C1=CC(C)(C)Oc2ccc(C#N)cc21` the value was 151 to 153 °C; for `Cn1cc(C(=O)C(Cl)Cl)c(=O)c(-c2cccc(C(F)(F)F)c2)c1`, 184 to 186 °C. Next, `c1cn(CCCc2ccc(OCc3coc(-c4cc5c(s4)CCCC5)n3)cc2)cn1`: 83 to 84 °C; `COc1ccc(-c2ccc(C=O)cc2)cc1`: 99 to 100 °C; `CNC(=O)N1N=C(c2ccc(N)cc2)c2cc3c(cc2CC1C)OCO3` (stereo not given): 133 to 135 °C. Next, `Cc1c(NC(=O)c2ccccc2[N+](=O)[O-])cccc1C(F)(F)F`: 188 to 189 °C; `CCOC(=O)c1cccc(OCCCC2CCN(c3ccc(Cl)nn3)CC2)c1`: 105 °C; `COc1cc2c(c(OC)c1/C=C/c1ccc(CO)cc1)C(C)(C)CCC2(C)C`: 102 to 104 °C. The molecule `CC#CCOc1ccc(SC(C(=O)NO)c2ccccc2)cc1` (stereo not given) had a melting point of 151 °C. For `CC(=O)c1c(F)cccc1N1CCN(C(=O)OC(C)(C)C)CC1` the value was 88 °C; for `CN1CCC(Oc2ccc(C(=O)NN)cc2)CC1`, 110 to 112 °C; for `CCOC(=O)c1c(N2CCN(C(=O)c3cccs3)CC2)c2sccc2[nH]c1=O`, 252 °C. As for `Cc1cc2c(cc1C(F)(F)F)NC(=O)CC(c1cccc(-c3nc(CO)sc3C)c1)=N2`, the melting point lay within 214 to 217 °C. Regarding `CCCN1C(=O)CN=C(N2CCCCCC2)c2ccccc21`, the melting point was in the range of 115 to 118 °C.

With `COC(=O)c1nc(N(C)Cc2ccccc2)ccc1Oc1nc(OC)cc(OC)n1`, the melting point was in the range of 73 to 75 °C. `Cc1onc(CCc2ccccc2)c1C(N)=O` yielded a melting point of 135 to 136 °C. In turn, `COC(=O)c1ccc2c(=O)[nH]c(=O)n(CCCCBr)c2c1` came in with a melting point of 184 to 185 °C. For `CN[C@H]1CCN(c2c(-c3csc(C)n3)c(C)c(C#N)c3nc(C(=O)N(C)C)oc23)C1` the value was 138 to 140 °C; for `CS(=O)(=O)c1ccc(C2=C(c3ccc(Cl)c(Cl)c3)CCC2)cc1`, 100 to 101 °C; for `CN(c1ccccc1-c1ccc2cnc(Nc3ccc(C4CCN(CC(N)=O)CC4)cc3)nn12)S(C)(=O)=O`, 170 °C.
